Assay results from ChEMBL document CHEMBL1131985, “9-[(2'S,3'S)-3'-formyl-2',3'-dihydroxypropyl]adenine: a facile affinity-labeling probe of human S-adenosyl-L-homocysteine hydrolase” (Bioorg Med Chem Lett, 1999).

Legend:
Adenosylhomocysteinase [1] = target: T1, Adenosylhomocysteinase (Homo sapiens, UniProt P23526); test: Concentration with maximum apparent affinity (Kapp) for S-adenosyl-l-homocysteine (SAH) hydrolase was reported
Target sequence in this assay (P23526 2-432 limits assumed): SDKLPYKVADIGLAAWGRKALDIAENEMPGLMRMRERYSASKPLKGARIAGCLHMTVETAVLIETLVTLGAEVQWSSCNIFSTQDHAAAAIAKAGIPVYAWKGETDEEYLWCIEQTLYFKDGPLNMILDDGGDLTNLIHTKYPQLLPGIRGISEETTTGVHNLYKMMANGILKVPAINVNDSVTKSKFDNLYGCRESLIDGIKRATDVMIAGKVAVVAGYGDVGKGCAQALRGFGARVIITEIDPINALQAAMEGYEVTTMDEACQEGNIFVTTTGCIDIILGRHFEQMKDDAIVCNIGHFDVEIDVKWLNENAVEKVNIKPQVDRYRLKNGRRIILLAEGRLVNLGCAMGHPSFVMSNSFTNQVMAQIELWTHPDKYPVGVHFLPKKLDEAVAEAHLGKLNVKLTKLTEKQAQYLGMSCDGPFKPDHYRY

Adenosylhomocysteinase [2] = target: T1, Adenosylhomocysteinase; test: Affinity and reactivity of an affinity-labeling reagent, was assessed from the inhibitory constant value
Target sequence in this assay (P23526 whole entry): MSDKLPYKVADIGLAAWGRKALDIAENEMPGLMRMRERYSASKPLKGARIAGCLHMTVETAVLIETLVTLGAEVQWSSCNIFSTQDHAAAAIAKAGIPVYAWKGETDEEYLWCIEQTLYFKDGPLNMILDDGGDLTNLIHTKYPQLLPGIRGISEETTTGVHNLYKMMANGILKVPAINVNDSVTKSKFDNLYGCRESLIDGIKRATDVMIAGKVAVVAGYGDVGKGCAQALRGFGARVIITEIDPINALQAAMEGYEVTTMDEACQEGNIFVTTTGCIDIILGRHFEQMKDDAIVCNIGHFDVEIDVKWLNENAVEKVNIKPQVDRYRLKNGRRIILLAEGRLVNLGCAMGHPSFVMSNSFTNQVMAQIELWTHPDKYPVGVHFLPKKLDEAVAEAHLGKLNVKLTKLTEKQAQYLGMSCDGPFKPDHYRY

Adenosylhomocysteinase [3] = target: T1, Adenosylhomocysteinase; test: Affinity and reactivity of an affinity-labeling reagent, was assessed from the inactivation constant value
Target sequence in this assay (P23526 2-432 limits assumed): as the sequence (P23526 2-432 limits assumed) above

`Nc1ncnc2c1ncn2C[C@H](O)[C@H](O)C=O` gave a K app (Adenosylhomocysteinase [1]) of 100 µM, a Ki (Adenosylhomocysteinase [2]) of 8.8 µM and a K inact (Adenosylhomocysteinase [3]) of 0.09 min⁻¹.
